Source: patent publication US20150105252A1, “SUBSTITUTED PYRAZOLES AS HERBICIDES” (E I DU PONT DE NEMOURS AND COMPANY, priority 2013, published 2015)

How the values were obtained:
[1] = tested on: morningglory; test: Test A preemergence; assay type: in vivo, Ipomoea spp.; conditions: preemergence; for Morningglory plant response rating (0 to 100 scale): 125 g ai/ha, visual injury approx. 10 days after treatment; for Morningglory plant response rating: 500 g ai/ha, visual injury after approx. 10 days, 0 to 100 scale (0 no effect, 100 complete control)
How it was run: (§1)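 Pre- and postemergence greenhouse test; loam+sand; cpd in non-phytotox. solvent/surfactant; post at 1–2 leaf, 2–10 cm; visual score ~10 d, 0 = none, 100 = complete control.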

[2] = tested on: velvetleaf; test: Test A preemergence; assay type: in vivo, Abutilon theophrasti; conditions: preemergence; for Velvetleaf plant response rating (0 to 100 scale): 125 g ai/ha, visual injury approx. 10 days after treatment; for Velvetleaf plant response rating: 500 g ai/ha, visual injury after approx. 10 days, 0 to 100 scale (0 no effect, 100 complete control)
How it was run: as §1

[3] = tested on: foxtail, giant; test: Test A preemergence; assay type: in vivo, Setaria faberii; conditions: preemergence; for Foxtail, Giant plant response rating (0 to 100 scale): 125 g ai/ha, visual injury approx. 10 days after treatment; for Foxtail, Giant plant response rating: 500 g ai/ha, visual injury after approx. 10 days, 0 to 100 scale (0 no effect, 100 complete control)
How it was run: as §1

[4] = tested on: barnyardgrass; test: Test A postemergence; assay type: in vivo, Echinochloa crus-galli
How it was run: as §1

[5] = tested on: morningglory; test: Test A postemergence; assay type: in vivo, Ipomoea spp.; conditions: Postemergence
How it was run: as §1

[6] = tested on: wheat; test: Test A preemergence; assay type: in vivo, Triticum aestivum; conditions: preemergence; for Wheat plant response rating (0 to 100 scale): 125 g ai/ha, visual injury approx. 10 days after treatment; for Wheat plant response rating: 500 g ai/ha, visual injury after approx. 10 days, 0 to 100 scale (0 no effect, 100 complete control)
How it was run: as §1

[7] = tested on: velvetleaf; test: Test A postemergence; assay type: in vivo, Abutilon theophrasti; conditions: Postemergence
How it was run: as §1

[8] = tested on: pigweed; test: Test A preemergence; assay type: in vivo, Amaranthus retroflexus; conditions: preemergence; for Pigweed plant response rating (0 to 100 scale): 125 g ai/ha, visual injury approx. 10 days after treatment; for Pigweed plant response rating: 500 g ai/ha, visual injury after approx. 10 days, 0 to 100 scale (0 no effect, 100 complete control)
How it was run: as §1

[9] = tested on: sedge, umbrella; test: Test B flood; assay type: in vivo, Cyperus difformis; conditions: 250 g ai/ha, visual rating on 0 to 100 scale (0 no effect, 100 complete control), 13 to 15 days
How it was run: (§2)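 Response scored visually, 0–100 relative to controls, 13–15 days after the compound was applied into paddy water; plants were at the 2-leaf stage in pots kept flooded to 3 cm.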

[10] = tested on: rice; test: Test B flood; assay type: in vivo, Oryza sativa; conditions: 250 g ai/ha, visual rating on 0 to 100 scale (0 no effect, 100 complete control), 13 to 15 days
How it was run: as §2

[11] = tested on: ducksalad; test: Test B flood; assay type: in vivo, Heteranthera limosa; conditions: 250 g ai/ha, visual rating on 0 to 100 scale (0 no effect, 100 complete control), 13 to 15 days
How it was run: as §2

[12] = tested on: crabgrass, large; test: Test A preemergence; assay type: in vivo, Digitaria sanguinalis; conditions: preemergence; for Crabgrass, Large plant response rating (0 to 100 scale): 125 g ai/ha, visual injury approx. 10 days after treatment; for Crabgrass, Large plant response rating: 500 g ai/ha, visual injury after approx. 10 days, 0 to 100 scale (0 no effect, 100 complete control)
How it was run: as §1

[13] = tested on: barnyardgrass; test: Test B flood; assay type: in vivo, Echinochloa crus-galli; conditions: 250 g ai/ha, visual rating on 0 to 100 scale (0 no effect, 100 complete control), 13 to 15 days
How it was run: as §2

[14] = tested on: corn; test: Test A preemergence; assay type: in vivo, Zea mays; conditions: preemergence; for Corn plant response rating (0 to 100 scale): 125 g ai/ha, visual injury approx. 10 days after treatment; for Corn plant response rating: 500 g ai/ha, visual injury after approx. 10 days, 0 to 100 scale (0 no effect, 100 complete control)
How it was run: as §1

[15] = tested on: pigweed; test: Test A postemergence; assay type: in vivo, Amaranthus retroflexus; conditions: Postemergence
How it was run: as §1

[16] = tested on: corn; test: Test A postemergence; assay type: in vivo, Zea mays
How it was run: as §1

[17] = tested on: wheat; test: Test A postemergence; assay type: in vivo, Triticum aestivum; conditions: Postemergence
How it was run: as §1

[18] = tested on: foxtail, giant; test: Test A postemergence; assay type: in vivo, Setaria faberii
How it was run: as §1

[19] = tested on: barnyardgrass; test: Test A preemergence; assay type: in vivo, Echinochloa crus-galli; conditions: preemergence; for Barnyardgrass plant response rating (0 to 100 scale, 0 is no effect, 100 is complete control): 125 g ai/ha, visual injury approx. 10 days after treatment; for Barnyardgrass plant response rating: 500 g ai/ha, visual injury after approx. 10 days, 0 to 100 scale (0 no effect, 100 complete control)
How it was run: as §1

[20] = tested on: crabgrass, large; test: Test A postemergence; assay type: in vivo, Digitaria sanguinalis
How it was run: as §1

[21] = Postemergence, 500 g ai/ha, 0 to 100 scale (0 no effect, 100 complete control)
[22] = postemergence, 125 g ai/ha, about 10 days, visual rating on 0 to 100 scale (0 no effect, 100 complete control)
[23] = 125 g ai/ha, 0 to 100 scale, 0 no effect, 100 complete control
[24] = 500 g ai/ha, 0 to 100 scale (0 no effect, 100 complete control)

`CCCCc1cc(C(=O)NCCC)nn1Cc1ccnc(C(F)(F)F)c1` [Compound 190] was tested, and the “Morningglory plant response rating (0 to 100 scale)” value [1] was 0, the “Morningglory plant response rating” value [1] was 30 and the “Velvetleaf plant response rating (0 to 100 scale)” value [2] was 0. For the same compound, the “Velvetleaf plant response rating” value [2] was 20, the “Foxtail, Giant plant response rating (0 to 100 scale)” value (shortened to “Foxtail … (0 to 100 scale)”) [3] was 20 and the “Foxtail, Giant plant response rating” value [3] was 90. For the same compound, the “Barnyardgrass plant response rating” value [4, 21] was 60, the “Barnyardgrass plant response rating” value [4, 22] was 10 and the “Morningglory plant response rating” value [5, 23] was 100. The “Morningglory plant response rating” value [5, 24] was 90, the “Wheat plant response rating (0 to 100 scale)” value [6] was 0 and the “Wheat plant response rating” value [6] was 0. The “Velvetleaf plant response rating” value [7, 23] was 100, the “Velvetleaf plant response rating” value [7, 24] was 80 and the “Pigweed plant response rating (0 to 100 scale)” value [8] was 100. The “Pigweed plant response rating” value [8] was 100, the “Plant response rating, Sedge, Umbrella” value [9] was 45 and the “Plant response rating, Rice” value [10] was 0. For the same compound, the “Plant response rating, Ducksalad” value [11] was 0, the “Crabgrass, Large plant response rating (0 to 100 scale)” value (from here on “Crabgrass … (0 to 100 scale)”) [12] was 80 and the “Crabgrass, Large plant response rating” value [12] was 100. For the same compound, the “Plant response rating, Barnyardgrass” value [13] was 0, the “Corn plant response rating (0 to 100 scale)” value [14] was 0 and the “Corn plant response rating” value [14] was 0. For the same compound, the “Pigweed plant response rating” value [15, 23] was 100, the “Pigweed plant response rating” value [15, 24] was 90 and the “Corn plant response rating” value [16, 21] was 40. For the same compound, the “Corn plant response rating” value [16, 22] was 10, the “Wheat plant response rating” value [17, 23] was 80 and the “Wheat plant response rating” value [17, 24] was 10. For the same compound, the “Foxtail, Giant plant response rating” value [18, 21] was 60, the “Foxtail, Giant plant response rating” value [18, 22] was 20 and the “Barnyardgrass plant response rating (0 to 100 scale, 0 is no effect, 100 is complete control)” value [19] was 0. The “Barnyardgrass plant response rating” value [19] was 60, the “Crabgrass, Large plant response rating” value [20, 21] was 70 and the “Crabgrass, Large plant response rating” value [20, 22] was 20.

For `CCCNC(=O)c1cc(C)n(Cc2ccnc(C(F)(F)F)c2)n1` [Compound 191], the “Morningglory plant response rating (0 to 100 scale)” value [1] was 90, the “Morningglory plant response rating” value [1] was 100 and the “Velvetleaf plant response rating (0 to 100 scale)” value [2] was 10. The “Velvetleaf plant response rating” value [2] was 100, the “Foxtail … (0 to 100 scale)” value [3] was 100 and the “Foxtail, Giant plant response rating” value [3] was 100. For the same compound, the “Barnyardgrass plant response rating” value [4, 21] was 100, the “Barnyardgrass plant response rating” value [4, 22] was 70 and the “Morningglory plant response rating” value [5, 23] was 90. For the same compound, the “Morningglory plant response rating” value [5, 24] was 90, the “Wheat plant response rating (0 to 100 scale)” value [6] was 0 and the “Wheat plant response rating” value [6] was 70. For the same compound, the “Velvetleaf plant response rating” value [7, 23] was 90, the “Velvetleaf plant response rating” value [7, 24] was 100 and the “Pigweed plant response rating (0 to 100 scale)” value [8] was 100. The “Pigweed plant response rating” value [8] was 100, the “Plant response rating, Sedge, Umbrella” value [9] was 55 and the “Plant response rating, Rice” value [10] was 0. The “Plant response rating, Ducksalad” value [11] was 80, the “Crabgrass … (0 to 100 scale)” value [12] was 100 and the “Crabgrass, Large plant response rating” value [12] was 100. For the same compound, the “Plant response rating, Barnyardgrass” value [13] was 0, the “Corn plant response rating (0 to 100 scale)” value [14] was 10 and the “Corn plant response rating” value [14] was 60. The “Pigweed plant response rating” value [15, 23] was 100, the “Pigweed plant response rating” value [15, 24] was 100 and the “Corn plant response rating” value [16, 21] was 100. For the same compound, the “Corn plant response rating” value [16, 22] was 60, the “Wheat plant response rating” value [17, 23] was 80 and the “Wheat plant response rating” value [17, 24] was 60. For the same compound, the “Foxtail, Giant plant response rating” value [18, 21] was 90, the “Foxtail, Giant plant response rating” value [18, 22] was 80 and the “Barnyardgrass plant response rating (0 to 100 scale, 0 is no effect, 100 is complete control)” value [19] was 20. The “Barnyardgrass plant response rating” value [19] was 100, the “Crabgrass, Large plant response rating” value [20, 21] was 90 and the “Crabgrass, Large plant response rating” value [20, 22] was 80.

`CCc1cc(C(=O)NN(C)C)nn1Cc1ccnc(C(F)(F)F)c1` [Compound 192] was tested, and the “Morningglory plant response rating (0 to 100 scale)” value [1] was 0, the “Morningglory plant response rating” value [1] was 10 and the “Velvetleaf plant response rating (0 to 100 scale)” value [2] was 0. For the same compound, the “Velvetleaf plant response rating” value [2] was 0, the “Foxtail … (0 to 100 scale)” value [3] was 0 and the “Foxtail, Giant plant response rating” value [3] was 0. For the same compound, the “Barnyardgrass plant response rating” value [4, 21] was 30, the “Barnyardgrass plant response rating” value [4, 22] was 10 and the “Morningglory plant response rating” value [5, 23] was 30. For the same compound, the “Morningglory plant response rating” value [5, 24] was 90, the “Wheat plant response rating (0 to 100 scale)” value [6] was 0 and the “Wheat plant response rating” value [6] was 0. For the same compound, the “Velvetleaf plant response rating” value [7, 23] was 50, the “Velvetleaf plant response rating” value [7, 24] was 80 and the “Pigweed plant response rating (0 to 100 scale)” value [8] was 0. The “Pigweed plant response rating” value [8] was 0, the “Plant response rating, Sedge, Umbrella” value [9] was 0 and the “Plant response rating, Rice” value [10] was 0. The “Plant response rating, Ducksalad” value [11] was 0, the “Crabgrass … (0 to 100 scale)” value [12] was 0 and the “Crabgrass, Large plant response rating” value [12] was 10. For the same compound, the “Plant response rating, Barnyardgrass” value [13] was 0, the “Corn plant response rating (0 to 100 scale)” value [14] was 0 and the “Corn plant response rating” value [14] was 0. For the same compound, the “Pigweed plant response rating” value [15, 23] was 80, the “Pigweed plant response rating” value [15, 24] was 90 and the “Corn plant response rating” value [16, 21] was 50. For the same compound, the “Corn plant response rating” value [16, 22] was 20, the “Wheat plant response rating” value [17, 23] was 0 and the “Wheat plant response rating” value [17, 24] was 10. The “Foxtail, Giant plant response rating” value [18, 21] was 30, the “Foxtail, Giant plant response rating” value [18, 22] was 10 and the “Barnyardgrass plant response rating (0 to 100 scale, 0 is no effect, 100 is complete control)” value [19] was 0. The “Barnyardgrass plant response rating” value [19] was 0, the “Crabgrass, Large plant response rating” value [20, 21] was 20 and the “Crabgrass, Large plant response rating” value [20, 22] was 10.
